Test results published in patent US20230145868A1, “UREA INHIBITORS OF MICRO-RNA” (Board of Regents, The University of Texas System, priority 2020, published 2023).
Where two headings read alike, the source gives them in different places. Blank lines part the entries; values can stand above or below the molecule they belong to.

Tests used:
[1] = test system: miR-10b; experiment: Luciferase reporter assay of miR-10b inhibition, MCF7 cells; type: cell-based; conditions: Homo sapiens, MCF7, 48 h
Text: To identify miR-10b inhibitors, a luciferase reporter system was designed with complementary oligonucleotides for miR-10b.This luciferase reporter would repress Renilla luciferase signal in the presence of a functional mature miR-10b. However, in the presence of a small molecule that can inhibit mature miR-10b expression or affect its downstream function, the luciferase expression is restored again.
The PsiCHECK™-2 luciferase reporter vector was acquired from Promega™, Complementary oligonucleotides for hsa-miR-10b were designed based on the mature miRNA sequence and obtained from Thermo Fisher Scientific. In the design of the microRNA target sequence, several base pairs were added to have two different restriction sites recognizable by the enzyme SgfI at one side, and PmeI on the other (present in the vector as well). In addition, the insert was designed with a restriction site for SacI enzyme in order to have an additional site to digest the vector when monitoring colonies for the presence/absence of the insert. The designed oligonucleotides were annealed as follows: Complementary strands were mixed at a 1:1 molar ratio in a micro centrifuge tube. The mixture was diluted to a final concentration of 1 pmol/μl with a buffer solution of 10 mM Tris, 1 mM EDTA, and 50 mM NaCl (pH 8.0). Mixes were incubated at 95° C. for 5 min, and then the heat was reduced gradually for 70 min, until reaching 4° C. The annealed oligonucleotides were digested along with the PsiCHECK™2 vector with SgfI and PmeI and ligated at the 3′-UTR (downstream) of the Renilla luciferase reporter gene in the PsiCHECK™-2vector. Insert sequences were further confirmed in two ways: enzymatic digestion and sequencing.
MCF7 cells were seeded 24 h prior to transfection in 96 well plates (2.0×10^4 cells/well). For testing the sensitivity of the assay, antagomiRs and pre-miRs against miR-10b were used at a final concentration of 100 nM. For testing small molecule miRNA inhibitors, the compounds of interest were added to a final concentration of 10 μM. The assay was done in MCF7 or MDA-MB-231 cells at approximately 60% confluence using Lipofectamine in Opti-Mem media with the final vector concentration of 250 ng/mL. All transfections were performed in triplicate for statistical analysis. The cells were incubated at 37° C. for 6 h, followed by replacement of the transfected media with fresh media. After 48 h incubation, the media was removed, and cells were lysed and assayed with a Dual Luciferase Assay Kit (Promega) using a Vi-Tech luminometer. The ratio of Renilla to firefly luciferase expression was calculated for each of the triplicates.

[2] = test system: LN229 cell line; experiment: MTS proliferation assay, LN229; type: cell-based, human; conditions: 5 and 10 μM, beginning at 48 h of treatment
Method: (§1) IC50 dose-response curves were determined using the cell proliferation assay system. Briefly, 5,000 or 10,000 cells of each cell line were plated in 96-well microculture plates in replicates of either 4 or 6. When cells became adherent, either 5 or 10 sequentially decreasing doses of the small molecule miRNA inhibitor were diluted into new media and added to individual wells. After either 24 or 48 hours, of a tetrazolium salt such as MTS, MTT, or WST-8 was added to each well at the same time of day as treatment and incubated for either 2 or 3 h at 37° C. The OD, measuring at the appropriate wavelength for the dye, was read at on a microplate spectrophotometer.
Cell proliferation is determined using a colorimetric assay. A tetrazolium salt such as MTS, MTT, or WST-8 is reduced by dehydrogenase activities in cells to give a formazan dye, which is soluble in the tissue culture media. The amount of the formazan dye (generated by the activities of dehydrogenases in cells, and directly proportional to the number of living cells) is measured after 3 h of incubation. The OD is read at 450 nm on a microplate spectrophotometer and growth values (%) are calculated as (OD treated cells/OD untreated cells)×100. The experiments are performed in triplicate. […] The OD is read at 450/550 nm on a microplate spectrophotometer, after one to seven days of the treatment. […]

[3] = test system: U251 brain cancer line; experiment: Clonogenic assay; type: cell-based, human; conditions: dose-dependent, 1 μM up to 5 μM, two weeks
Method: In vitro clonogenic assays were conducted with adherent lines seeded in 12-well plates, treated for two weeks, and stained with crystal violet.

[4] = test system: AGS cell line; experiment: Cell proliferation assay (WST-8 or MTS), AGS; type: cell-based, human
Method: as §1
Cell proliferation is determined using a colorimetric assay. A tetrazolium salt such as MTS, MTT, or WST-8 is reduced by dehydrogenase activities in cells to give a formazan dye, which is soluble in the tissue culture media. The amount of the formazan dye (generated by the activities of dehydrogenases in cells, and directly proportional to the number of living cells) is measured after 3 h of incubation. The OD is read at 450 nm on a microplate spectrophotometer and growth values (%) are calculated as (OD treated cells/OD untreated cells)×100. The experiments are performed in triplicate. Cell viability is also tested by bromodeoxyuridine (BrdU) test according to the instructions. 2000 MM231, MCF7 and HepG2 cells are seeded to 96-well plate. After 24 h, 10 μM DMSO or linifanib is added to each well. The OD is read at 450/550 nm on a microplate spectrophotometer, after one to seven days of the treatment. The experiments are performed in triplicate.

[5] = Microsomal stability assay, rat; type: in vitro ADME; conditions: 1 μM test compound, unit printed in b356 only
Method: The liver microsomal incubation mixture was composed of liver microsomes (with a concentration of 0.5 mg microsomal protein/ml), the test compound (1 μM), MgCl2 (3 mM), EDTA (1 mM) in potassium phosphate buffer (100 mM, pH 7.4). Control substrates used were Midazolam and Ketanserin. The reaction was initiated with the addition of an NADPH regeneration solution (1.3 mM NADPH) and maintained at 37° C. with shaking. At five sequential time points ranging from 0 to 45 min, aliquots of the mixture (50 μL) were removed and quenched with acetonitrile (100 μL) containing an internal standard control (imipramine) Samples were analyzed after vortexing and centrifugation by liquid chromatography-mass spectrometry (LC-MS/MS). The in vitro t1/2 was then calculated and clearance followed literature.

[6] = test system: U251 brain cancer cell line; experiment: Cell cycle analysis via flow cytometry; type: cell-based, human; conditions: 5 μM
Method: In 6-well plates, 1×10^5 cells/mL were added into each well. After 24 h, sequential concentrations of DMSO and 4 based were administered and the plates were incubated for 48 h. The supernatant and adherent cells were collected and centrifugated. Each dose was done in triplicate, with each sample composing two wells. For apoptosis analysis, the supernatant was discarded after centrifugation and the pellet washed with PBS twice. Then, BD Annexin V-FITC/PI used to stain the cells for analysis via flow cytometry on the Gallios machine. For cell cycle analysis, after washing with PBS, cells were fixed with ethanol and incubated. They, were treated with RNase enzyme and analyzed.

[7] = Table 6, MCF7, second biological replicant, 10 μM compound, mean of triplicate, read-out: n-fold increase in luciferase expression, Mean
[8] = Table 6, MCF7, second biological replicant, 10 μM compound, replicate #1, read-out: n-fold increase in luciferase expression, #1
[9] = Table 6, MCF7, second biological replicant, 10 μM compound, replicate #2, read-out: n-fold increase in luciferase expression, #2
[10] = Table 6, MCF7, second biological replicant, 10 μM compound, replicate #3, read-out: n-fold increase in luciferase expression, #3
[11] = rat, liver microsomes, pH 7.4, rat liver microsomes

- CLint ([5]; rat liver microsomes): 41.1 mL/min/kg
- Half-life ([5]; rat liver microsomes): 1.01 h
- CLint scaled at 1 μM [5, 11]: 41 mL/min/kg
- half-life at 1 μM [5, 11]: 1 h
Compound: Cc1ccc(F)c(NC(=O)Nc2ccc(-c3cccc4cn[nH]c34)cc2)c1 [Example 4, 1-(4-(1H-indazol-7-yl)phenyl)-3-(2-fluoro-5-methylphenyl)urea]
- fold induction at 10 µM ([1]; Table 4, MCF7, 10 μM compound, vs negative control (DMSO), mean of triplicate, read-out: n-fold increase in luciferase expression, Mean): 2.71
- fold induction at 10 µM ([1]; Table 4, MCF7, 10 μM compound, vs negative control (DMSO), replicate #1, read-out: n-fold increase in luciferase expression, #1): 1.95
- fold induction at 10 µM ([1]; Table 4, MCF7, 10 μM compound, vs negative control (DMSO), replicate #2, read-out: n-fold increase in luciferase expression, #2): 3.8
- fold induction at 10 µM ([1]; Table 4, MCF7, 10 μM compound, vs negative control (DMSO), replicate #3, read-out: n-fold increase in luciferase expression, #3): 2.39
- fold induction at 10 µM [1, 7]: 2.54
- fold induction at 10 µM [1, 8]: 4.28
- fold induction at 10 µM [1, 9]: 2.09
- fold induction at 10 µM [1, 10]: 1.24
- proliferation (MTS), every 24 h over 96 h [2]: significant difference in proliferation
- formation of colonies [3]: suppressed the formation of colonies
- cell viability (proliferation ability) ([4]; 10 μM, vs DMSO): statistically significant effect
- proliferation (MTS), every 24 h over 96 h ([4]; 5 and 10 μM, beginning at 48 h of treatment): significant difference in proliferation
- cell cycle phase distribution [6]: clear increase shown at the G2/M phase

Compound: Cc1ccc(F)c(NC(=O)Nc2ccc(-c3cncnc3)cc2)c1 [Example 2, 1-(2-fluoro-5-methylphenyl)-3-(4-(pyrimidin-5-yl)phenyl)urea]
- fold induction at 10 µM ([1]; Table 3, MCF7, 10 μM compound, vs negative control (DMSO), mean of triplicate, read-out: n-fold increase in luciferase expression, Mean): 2.19
- fold induction at 10 µM ([1]; Table 3, MCF7, 10 μM compound, vs negative control (DMSO), replicate #1, read-out: n-fold increase in luciferase expression, #1): 2.75
- fold induction at 10 µM ([1]; Table 3, MCF7, 10 μM compound, vs negative control (DMSO), replicate #2, read-out: n-fold increase in luciferase expression, #2): 1.78
- fold induction at 10 µM ([1]; Table 3, MCF7, 10 μM compound, vs negative control (DMSO), replicate #3, read-out: n-fold increase in luciferase expression, #3): 2.05
- fold induction at 10 µM [1, 7]: 2.44
- fold induction at 10 µM [1, 8]: 2.51
- fold induction at 10 µM [1, 9]: 2.84
- fold induction at 10 µM [1, 10]: 1.96
- proliferation ([4]; 10 μM, 5 μM and 2 μM, vs DMSO): reduced proliferation
